The values that follow are results of earlier work, collected in patent publication US10646533B2, “Absorption enhancer for polyphenol” (priority 2015, dated 2020).

Where two headings read alike, the source gives them in different places.

For data set [1] the following is noted: orally ingested, human.
The conditions of data set [2]: orally ingested, rat.

Turning to `O=C(O[C@@H]1Cc2c(O)cc(O)cc2O[C@@H]1c1cc(O)c(O)c(O)c1)c1cc(O)c(O)c(O)c1` [epigallocatechin gallate], the “migration rate into blood” value in data set [1] and in data set [2] was “about 2%” in each case.
